In ChEMBL document CHEMBL1129834, “A boronated benzamide as melanoma-seeking agent” (Bioorg Med Chem Lett, 1997):

Columns and labels:
[1] = Compound was evaluated for the biodistribution of tumor-imaging agent in B16 melanoma bearing mice muscle upon intraveneous administration at 2.6 gmol/mice after 3 hour; assay type: ADME, organism-based, Muscle tissue; conditions: mus sp., in vivo, iv
[2] = Compound was evaluated for the biodistribution of tumor-imaging agent in B16 melanoma bearing mice muscle upon intraveneous administration at 2.6 gmol/mice after 24 hour; assay type: ADME, organism-based, Muscle tissue; conditions: mus sp., in vivo, iv
[3] = Compound was evaluated for the biodistribution of tumor-imaging agent in B16 melanoma bearing mice blood upon intraveneous administration at 2.6 gmol/mice after 3 hour; assay type: ADME, organism-based; conditions: mus sp., in vivo, iv
[4] = Compound was evaluated for the biodistribution of tumor-imaging agent in B16 melanoma bearing mice uvea upon intraveneous administration at 2.6 gmol/mice after 3 hour; assay type: ADME, organism-based, Uveal tract; conditions: mus sp., in vivo, iv
[5] = Compound was evaluated for the biodistribution of tumor-imaging agent in B16 melanoma bearing mice kidney upon intraveneous administration at 2.6 gmol/mice after 1 hour; assay type: ADME, organism-based; conditions: mus sp., in vivo, iv
[6] = Compound was evaluated for the biodistribution of tumor-imaging agent in B16 melanoma bearing mice brain upon intraveneous administration at 2.6 gmol/mice after 3 hour; assay type: ADME, organism-based; conditions: mus sp., in vivo, iv
[7] = Compound was evaluated for the biodistribution of tumor-imaging agent in B16 melanoma bearing mice blood upon intraveneous administration at 2.6 gmol/mice after 1 hour; assay type: ADME, organism-based; conditions: mus sp., in vivo, iv
[8] = Compound was evaluated for the biodistribution of tumor-imaging agent in B16 melanoma bearing mice uvea upon intraveneous administration at 2.6 gmol/mice after 24 hour; assay type: ADME, organism-based, Uveal tract; conditions: mus sp., in vivo, iv
[9] = Acute toxicity of compound in OF1 mice; assay type: organism-based; conditions: OF1, mouse, in vivo
[10] = Compound was evaluated for the biodistribution of tumor-imaging agent in B16 melanoma bearing mice spleen upon intraveneous administration at 2.6 gmol/mice after 1 hour; assay type: ADME, organism-based; conditions: mus sp., in vivo, iv
[11] = Compound was evaluated for the biodistribution of tumor-imaging agent in B16 melanoma bearing mice upon intraveneous administration at 2.6 gmol/mice after 1 hour; assay type: ADME, organism-based; conditions: mus sp., in vivo, iv
[12] = Compound was evaluated for the biodistribution of tumor-imaging agent in B16 melanoma bearing mice liver upon intraveneous administration at 2.6 gmol/mice after 3 hour; assay type: ADME, organism-based; conditions: mus sp., in vivo, iv
[13] = Compound was evaluated for the biodistribution of tumor-imaging agent in B16 melanoma bearing mice upon intraveneous administration at 2.6 gmol/mice after 3 hour; assay type: ADME, organism-based; conditions: mus sp., in vivo, iv
[14] = Compound was evaluated for the biodistribution of tumor-imaging agent in B16 melanoma bearing mice muscle upon intraveneous administration at 2.6 gmol/mice after 1 hour; assay type: ADME, organism-based, Muscle tissue; conditions: mus sp., in vivo, iv
[15] = Compound was evaluated for the biodistribution of tumor-imaging agent in B16 melanoma bearing mice kidney upon intraveneous administration at 2.6 gmol/mice after 24 hour; assay type: ADME, organism-based; conditions: mus sp., in vivo, iv
[16] = Compound was evaluated for the biodistribution of tumor-imaging agent in B16 melanoma bearing mice liver upon intraveneous administration at 2.6 gmol/mice after 24 hour; assay type: ADME, organism-based; conditions: mus sp., in vivo, iv
[17] = Compound was evaluated for the biodistribution of tumor-imaging agent in B16 melanoma bearing mice kidney upon intraveneous administration at 2.6 gmol/mice after 3 hour; assay type: ADME, organism-based; conditions: mus sp., in vivo, iv
[18] = Compound was evaluated for the biodistribution of tumor-imaging agent in B16 melanoma bearing mice liver upon intraveneous administration at 2.6 gmol/mice after 1 hour; assay type: ADME, organism-based; conditions: mus sp., in vivo, iv
[19] = Compound was evaluated for the biodistribution of tumor-imaging agent in B16 melanoma bearing mice lungs upon intraveneous administration at 2.6 gmol/mice after 3 hour; assay type: ADME, organism-based; conditions: mus sp., in vivo, iv
[20] = Compound was evaluated for the biodistribution of tumor-imaging agent in B16 melanoma bearing mice lungs upon intraveneous administration at 2.6 gmol/mice after 1 hour; assay type: ADME, organism-based; conditions: mus sp., in vivo, iv
[21] = Compound was evaluated for the biodistribution of tumor-imaging agent in B16 melanoma bearing mice brain upon intraveneous administration at 2.6 gmol/mice after 1 hour; assay type: ADME, organism-based; conditions: mus sp., in vivo, iv
[22] = Partition coefficient (logP); assay type: physicochemical; conditions: octanol/water
[23] = Compound was evaluated for the biodistribution of tumor-imaging agent in B16 melanoma bearing mice spleen upon intraveneous administration at 2.6 gmol/mice after 3 hour; assay type: ADME, organism-based; conditions: mus sp., in vivo, iv
[24] = Compound was evaluated for the biodistribution of tumor-imaging agent in B16 melanoma bearing mice upon intraveneous administration at 2.6 gmol/mice after 24 hour; assay type: ADME, organism-based; conditions: mus sp., in vivo, iv

Work on `CCN(CC)CCNC(=O)c1ccc(B2OCCCO2)cc1` yielded an Injected dose/g [1] of 1.96%, an Injected dose/g [2] of 0.04% and an Injected dose/g [3] of 0.97%. For the same molecule, the Injected dose/g [4] was 2.78%, the Injected dose/g [5] was 4.88% and the Injected dose/g [6] was 0.18%. The Injected dose/g [7] was 2.53%, the Injected dose/g [8] was 0.84% and the LD50 [9] was 1860 µmol/kg. It also gave an Injected dose/g [10] of 2.61%, an Injected dose/g [11] of 3.26% and an Injected dose/g [12] of 4.76%. For the same molecule, the Injected dose/g [13] was 2.89%, the Injected dose/g [14] was 2.95% and the Injected dose/g [15] was 0.13%. It also gave an Injected dose/g [16] of 0.22%, an Injected dose/g [17] of 3.38% and an Injected dose/g [18] of 5.11%. The Injected dose/g [19] was 1.24%, the Injected dose/g [20] was 1.91% and the Injected dose/g [21] was 0.19%. It also gave a logP [22] of -1, an Injected dose/g [23] of 1.53% and an Injected dose/g [24] of 0.52%.
